The text below walks through data of patent US20240376121A1, “COMPOUNDS AND USES THEREOF” (Foghorn Therapeutics Inc., priority 2021, published 2024).

Assay [1] addresses T1, HiBit-BRM fusion protein (Homo sapiens, UniProt P51531).
T1 construct: expressed in transfected cells
Briefly: HiBiT-BRM cell-based degradation assay (Nano-Glo HiBiT Lytic Detection). As to conditions: stable HeLa cell line expressing HiBiT-BRM, 24 h incubation; for BRM HiBit Degradation Maximum (%): top dose 30 μM; for DC50: read-out: BRM HiBit Degradation IC50. The gist of the method: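 Percent BRM loss was derived from HiBiT luminescence relative to DMSO-treated cells and cells given 2 μM of a known BRM/BRG1 degrader. Treatment lasted 24 h in HiBiT-BRM HeLa cells, with a top final concentration of 30 μM.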

The target in assay [2] is T2, HiBit-BRG1 fusion protein (Homo sapiens, UniProt P51532).
T2 construct: expressed in transfected cells
Description: HiBiT-BRG1 cell-based degradation assay (Nano-Glo HiBiT Lytic Detection). The note with it: stable HeLa cell line expressing HiBit-BRG1 and LgBit, 24 h incubation; for Dmax: top dose 30 μM, read-out: BRG1 HiBit Degradation Maximum (%); for DC50: read-out: BRMG1 HiBit Degradation IC50. A digest of the protocol: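 Degradation was scored from HiBiT lytic luminescence, scaled between DMSO-treated wells and wells given 2 μM of a standard BRM/BRG1 degrader. Cells were a stable HeLa HiBiT-BRG1/LgBiT line dosed for 24 h, ten concentrations in 3-fold steps from 30 μM, in duplicate.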

T1 sequence (P51531 whole entry, the tested form may be a part): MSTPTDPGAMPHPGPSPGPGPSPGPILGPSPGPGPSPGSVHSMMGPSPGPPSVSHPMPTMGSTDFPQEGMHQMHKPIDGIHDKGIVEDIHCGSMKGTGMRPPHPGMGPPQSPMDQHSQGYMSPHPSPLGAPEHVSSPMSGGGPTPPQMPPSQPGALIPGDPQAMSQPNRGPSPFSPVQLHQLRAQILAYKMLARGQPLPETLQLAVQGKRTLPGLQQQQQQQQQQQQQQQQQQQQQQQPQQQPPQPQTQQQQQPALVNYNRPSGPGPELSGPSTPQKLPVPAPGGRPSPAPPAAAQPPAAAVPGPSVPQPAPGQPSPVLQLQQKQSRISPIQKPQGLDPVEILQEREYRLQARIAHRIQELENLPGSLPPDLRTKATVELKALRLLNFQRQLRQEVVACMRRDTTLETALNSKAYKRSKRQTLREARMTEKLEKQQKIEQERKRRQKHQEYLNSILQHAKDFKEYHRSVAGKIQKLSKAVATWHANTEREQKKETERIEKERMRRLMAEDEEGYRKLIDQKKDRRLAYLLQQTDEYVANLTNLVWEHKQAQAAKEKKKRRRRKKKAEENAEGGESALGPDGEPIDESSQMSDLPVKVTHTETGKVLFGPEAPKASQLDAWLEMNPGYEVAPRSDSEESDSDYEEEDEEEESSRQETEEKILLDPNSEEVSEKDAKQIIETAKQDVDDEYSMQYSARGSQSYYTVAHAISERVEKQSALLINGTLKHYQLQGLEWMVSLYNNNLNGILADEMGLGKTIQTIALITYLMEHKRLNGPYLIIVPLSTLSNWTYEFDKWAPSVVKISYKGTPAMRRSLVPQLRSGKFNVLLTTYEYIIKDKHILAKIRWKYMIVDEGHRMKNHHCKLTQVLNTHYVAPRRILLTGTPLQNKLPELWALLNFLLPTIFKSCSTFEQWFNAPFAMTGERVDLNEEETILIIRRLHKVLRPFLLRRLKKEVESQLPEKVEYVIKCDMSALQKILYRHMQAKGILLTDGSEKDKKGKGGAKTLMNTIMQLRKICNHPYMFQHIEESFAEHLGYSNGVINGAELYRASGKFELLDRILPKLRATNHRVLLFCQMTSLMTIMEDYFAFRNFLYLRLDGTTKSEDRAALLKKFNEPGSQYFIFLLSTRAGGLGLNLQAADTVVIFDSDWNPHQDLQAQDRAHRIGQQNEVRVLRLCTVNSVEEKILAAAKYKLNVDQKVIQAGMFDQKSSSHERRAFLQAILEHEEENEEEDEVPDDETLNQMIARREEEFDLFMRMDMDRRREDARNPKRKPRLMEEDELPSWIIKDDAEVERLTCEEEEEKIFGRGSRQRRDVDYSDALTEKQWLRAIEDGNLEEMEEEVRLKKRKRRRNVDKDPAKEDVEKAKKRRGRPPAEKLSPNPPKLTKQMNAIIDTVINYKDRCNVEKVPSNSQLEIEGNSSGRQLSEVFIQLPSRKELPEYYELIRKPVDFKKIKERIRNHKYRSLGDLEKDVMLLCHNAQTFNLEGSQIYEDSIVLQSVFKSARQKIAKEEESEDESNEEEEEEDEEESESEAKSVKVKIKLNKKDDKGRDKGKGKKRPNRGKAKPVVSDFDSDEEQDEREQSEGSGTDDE
T2 sequence (P51532 whole entry, the tested form may be a part): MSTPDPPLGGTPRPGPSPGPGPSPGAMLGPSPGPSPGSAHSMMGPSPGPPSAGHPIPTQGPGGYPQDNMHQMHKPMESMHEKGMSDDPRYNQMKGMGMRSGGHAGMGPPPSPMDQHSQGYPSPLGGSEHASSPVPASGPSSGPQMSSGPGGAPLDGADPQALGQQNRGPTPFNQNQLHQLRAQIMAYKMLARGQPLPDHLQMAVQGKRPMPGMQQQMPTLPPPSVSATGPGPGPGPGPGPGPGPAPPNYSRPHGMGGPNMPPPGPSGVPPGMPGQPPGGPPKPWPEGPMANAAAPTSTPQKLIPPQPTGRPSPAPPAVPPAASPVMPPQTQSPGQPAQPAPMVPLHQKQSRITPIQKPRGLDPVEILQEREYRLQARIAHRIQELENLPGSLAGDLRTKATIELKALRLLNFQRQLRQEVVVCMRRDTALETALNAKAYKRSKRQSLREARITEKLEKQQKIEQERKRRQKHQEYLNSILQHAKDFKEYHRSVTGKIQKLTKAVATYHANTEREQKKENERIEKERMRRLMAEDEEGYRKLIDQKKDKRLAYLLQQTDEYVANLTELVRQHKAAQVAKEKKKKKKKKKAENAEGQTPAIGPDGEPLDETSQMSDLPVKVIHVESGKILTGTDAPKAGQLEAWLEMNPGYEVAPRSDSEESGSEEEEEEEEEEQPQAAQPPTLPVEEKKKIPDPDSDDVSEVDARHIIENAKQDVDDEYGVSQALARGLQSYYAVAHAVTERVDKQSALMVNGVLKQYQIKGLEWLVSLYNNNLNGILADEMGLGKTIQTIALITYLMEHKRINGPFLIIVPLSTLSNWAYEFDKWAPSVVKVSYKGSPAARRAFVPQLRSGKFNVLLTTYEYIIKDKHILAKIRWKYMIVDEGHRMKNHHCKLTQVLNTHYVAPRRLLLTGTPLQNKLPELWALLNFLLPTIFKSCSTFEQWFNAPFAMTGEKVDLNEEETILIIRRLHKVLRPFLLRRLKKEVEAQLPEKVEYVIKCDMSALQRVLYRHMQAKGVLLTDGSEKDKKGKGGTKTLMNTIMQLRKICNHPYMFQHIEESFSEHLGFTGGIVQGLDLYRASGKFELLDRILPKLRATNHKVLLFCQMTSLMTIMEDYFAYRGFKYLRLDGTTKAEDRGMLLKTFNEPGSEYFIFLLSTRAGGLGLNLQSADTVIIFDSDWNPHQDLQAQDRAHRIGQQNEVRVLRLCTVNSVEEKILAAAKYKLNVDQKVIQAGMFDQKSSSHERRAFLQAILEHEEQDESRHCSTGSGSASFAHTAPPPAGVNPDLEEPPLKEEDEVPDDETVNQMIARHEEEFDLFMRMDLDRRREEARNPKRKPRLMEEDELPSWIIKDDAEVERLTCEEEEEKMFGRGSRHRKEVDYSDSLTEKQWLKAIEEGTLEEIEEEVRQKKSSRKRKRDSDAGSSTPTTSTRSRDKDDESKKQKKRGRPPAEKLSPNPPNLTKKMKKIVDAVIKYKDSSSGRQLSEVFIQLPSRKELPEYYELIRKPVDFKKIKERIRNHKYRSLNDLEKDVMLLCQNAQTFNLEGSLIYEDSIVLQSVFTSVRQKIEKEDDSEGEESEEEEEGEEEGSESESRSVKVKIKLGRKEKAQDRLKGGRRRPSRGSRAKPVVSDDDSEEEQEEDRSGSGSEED

As for `Cc1ncsc1-c1ccc([C@H](C)NC(=O)[C@@H]2C[C@@H](O)CN2C(=O)[C@@H](c2cc(N3C[C@H]4C[C@@H]3CN4C(=O)[C@H]3CCc4sc5nnc(-c6ccccc6O)cc5c4C3)no2)C(C)C)cc1` [Compound 41, (2S,4R)-4-hydroxy-1-((R)-2-(3-((1R,4R)-5-((S)-3-(2-hydroxyphenyl)-5,6,7,8-tetrahydrobenzo[4,5]thieno[2,3-c]pyridazine-6-carbonyl)-2,5-diazabicyclo[2.2.1]heptan-2-yl)isoxazol-5-yl)-3-methylbutanoyl)-N—((S)-1-(4-(4-methylthiazol-5-yl)phenyl)ethyl)pyrrolidine-2-carboxamide], in assay [1], the “BRM HiBit Degradation Maximum (%)” value is reported as “A (“A” indicates maximum degradation ≥ 75%)” and the DC50 was not below 0.01 µM. For the same compound, in assay [2], the Dmax was not below 50% and the DC50 is not below 0.1 µM.

As to `Cc1ncsc1-c1ccc(CNC(=O)[C@@H]2C[C@@H](O)CN2C(=O)[C@@H](NC(=O)CCCCC(=O)N2CC(c3cc4cc(-c5ccccc5O)nnc4s3)C2)C(C)(C)C)cc1` [Compound 30], in assay [1], the “BRM HiBit Degradation Maximum (%)” value is on record as “C (“C” indicates maximum degradation < 50%)” and the DC50 was not below 1 µM. Moreover, in assay [2], the Dmax was less than 50% and the DC50 is not below 1 µM.

For `Cc1ncsc1-c1ccc(CNC(=O)[C@@H]2C[C@@H](O)CN2C(=O)[C@@H](NC(=O)C2(F)CC2)C(C)(C)C)c(OCC(=O)N2CCC(c3cc4nnc(-c5ccccc5O)cc4s3)CC2)c1` [Compound 75, (2S,4R)-1-((S)-2-(1-fluorocyclopropane-1-carboxamido)-3,3-dimethylbutanoyl)-4-hydroxy-N-(2-(2-(4-(3-(2-hydroxyphenyl)thieno[3,2-c]pyridazin-6-yl)piperidin-1-yl)-2-oxoethoxy)-4-(4-methylthiazol-5-yl)benzyl)pyrrolidine-2-carboxamide], in assay [1], the “BRM HiBit Degradation Maximum (%)” value is listed as “C (“C” indicates maximum degradation < 50%)” and the DC50 was not below 1 µM. In addition, in assay [2], the Dmax was less than 50% and the DC50 is not below 1 µM.

As for `Cc1ncsc1-c1ccc([C@H](C)NC(=O)[C@@H]2C[C@@H](O)CN2C(=O)[C@@H](c2cc(N3CCC(C(=O)N4CC(c5sc6nnc(-c7ccccc7O)cc6c5C)C4)CC3)no2)C(C)C)cc1` [Compound 10], in assay [1], the “BRM HiBit Degradation Maximum (%)” value was “A (“A” indicates maximum degradation ≥ 75%)” and the DC50 was not below 0.01 µM. In addition, in assay [2], the Dmax was less than 50% and the DC50 was not below 1 µM.

For the compound `Cc1ncsc1-c1ccc([C@H](C)NC(=O)[C@@H]2C[C@@H](O)CN2C(=O)[C@@H](c2cc(N3CCN(C(=O)[C@H]4CCc5sc6nnc(-c7ccccc7O)cc6c5C4)CC3)no2)C(C)C)cc1` [Compound 52, (2S,4R)-4-hydroxy-1-((R)-2-(3-(4-((S)-3-(2-hydroxyphenyl)-5,6,7,8-tetrahydrobenzo[4,5]thieno[2,3-c]pyridazine-6-carbonyl)piperazin-1-yl)isoxazol-5-yl)-3-methylbutanoyl)-N-((S)-1-(4-(4-methylthiazol-5-yl)phenyl)ethyl)pyrrolidine-2-carboxamide], in assay [1], the “BRM HiBit Degradation Maximum (%)” value was “C (“C” indicates maximum degradation < 50%)” and the DC50 was not below 1 µM. Besides, in assay [2], the Dmax was less than 50% and the DC50 was not below 1 µM.

Regarding `Cc1ncsc1-c1ccc(CNC(=O)[C@@H]2C[C@@H](O)CN2C(=O)[C@@H](NC(=O)CCCCC(=O)N2CCC(c3cc4nnc(-c5ccccc5O)cc4s3)CC2)C(C)(C)C)cc1` [Compound 84, (2S,4R)-4-hydroxy-1-((S)-2-(6-(4-(3-(2-hydroxyphenyl)thieno[3,2-c]pyridazin-6-yl)piperidin-1-yl)-6-oxohexanamido)-3,3-dimethylbutanoyl)-N-(4-(4-methylthiazol-5-yl)benzyl)pyrrolidine-2-carboxamide], in assay [1], the “BRM HiBit Degradation Maximum (%)” value was “C (“C” indicates maximum degradation < 50%)” and the DC50 is not below 0.1 µM. Moreover, in assay [2], the Dmax is less than 50% and the DC50 is not below 1 µM.

On to `Cc1ncsc1-c1ccc([C@H](C)NC(=O)[C@@H]2C[C@@H](O)CN2C(=O)[C@@H](c2cc(O[C@H]3CC[C@@H]3N3CCC(c4sc5nnc(-c6ccccc6O)cc5c4C)CC3)no2)C(C)C)cc1` [Compound 36, (2S,4R)-4-hydroxy-1-[(2R)-2-{3-[(1S,2S)-2-{4-[3-(2-hydroxyphenyl)-5-methylthieno[2,3-c]pyridazin-6-yl]piperidin-1-yl}cyclobutoxy]-1,2-oxazol-5-yl}-3-methylbutanoyl]-N-[(1S)-1-[4-(4-methyl-1,3-thiazol-5-yl)phenyl]ethyl]pyrrolidine-2-carboxamide], for which, in assay [1], the “BRM HiBit Degradation Maximum (%)” value was “B (“B” indicates maximum degradation ≥ 50%)” and the DC50 is not below 0.01 µM. In addition, in assay [2], the Dmax is less than 50% and the DC50 was not below 1 µM.

In the case of `Cc1ncsc1-c1ccc([C@H](C)NC(=O)[C@@H]2C[C@@H](O)CN2C(=O)[C@@H](c2cc(OCCN3CC(c4cc5cc(-c6ccccc6O)nnc5s4)C3)no2)C(C)C)cc1` [Compound 1, (2S,4R)-4-hydroxy-1-((R)-2-(3-(2-(3-(3-(2-hydroxyphenyl)thieno[2,3-c]pyridazin-6-yl)azetidin-1-yl)ethoxy)isoxazol-5-yl)-3-methylbutanoyl)-N—((S)-1-(4-(4-methylthiazol-5-yl)phenyl)ethyl)pyrrolidine-2-carboxamide], in assay [1], the “BRM HiBit Degradation Maximum (%)” value was “B (“B” indicates maximum degradation ≥ 50%)” and the DC50 was not below 0.01 µM. For the same compound, in assay [2], the Dmax was less than 50% and the DC50 is not below 1 µM.

As to `Cc1ncsc1-c1ccc([C@H](C)NC(=O)[C@@H]2C[C@@H](O)CN2C(=O)[C@@H](c2cc(N3CCC(C(=O)N4CCC(c5sc6nnc(-c7ccccc7O)cc6c5C)CC4)CC3)no2)C(C)C)cc1` [Compound 98, (2S,4R)-4-hydroxy-1-((R)-2-(3-(4-(4-(3-(2-hydroxyphenyl)-5-methylthieno[2,3-c]pyridazin-6-yl)piperidine-1-carbonyl)piperidin-1-yl)isoxazol-5-yl)-3-methylbutanoyl)-N-((S)-1-(4-(4-methylthiazol-5-yl)phenyl)ethyl)pyrrolidine-2-carboxamide], in assay [1], the “BRM HiBit Degradation Maximum (%)” value was “A (“A” indicates maximum degradation ≥ 75%)” and the DC50 was less than 0.01 µM. Besides, in assay [2], the Dmax was not below 50% and the DC50 was not below 1 µM.

`Cc1ncsc1-c1ccc([C@H](C)NC(=O)[C@@H]2C[C@@H](O)CN2C(=O)[C@@H](c2cc(N3CCC(CN4CC(c5cc6cc(-c7ccccc7O)nnc6s5)C4)CC3)no2)C(C)C)cc1` [Compound 7]: in assay [1], the “BRM HiBit Degradation Maximum (%)” value is “A (“A” indicates maximum degradation ≥ 75%)” and the DC50 was not below 0.01 µM. Moreover, in assay [2], the Dmax was less than 50% and the DC50 is not below 1 µM.

Turning to `Cc1ncsc1-c1ccc([C@H](C)NC(=O)[C@@H]2C[C@@H](O)CN2C(=O)[C@@H](c2cc(OCCN3CC(c4cc5nnc(-c6ccccc6O)cc5s4)C3)no2)C(C)C)cc1` [Compound 9, (2S,4R)-4-hydroxy-1-((R)-2-(3-(2-(3-(3-(2-hydroxyphenyl)thieno[3,2-c]pyridazin-6-yl)azetidin-1-yl)ethoxy)isoxazol-5-yl)-3-methylbutanoyl)-N—((S)-1-(4-(4-methylthiazol-5-yl)phenyl)ethyl)pyrrolidine-2-carboxamide], in assay [1], the “BRM HiBit Degradation Maximum (%)” value is “A (“A” indicates maximum degradation ≥ 75%)” and the DC50 was not below 0.01 µM. In assay [2], the Dmax was less than 50% and the DC50 was not below 1 µM.

As for `Cc1ncsc1-c1ccc([C@H](C)NC(=O)[C@@H]2C[C@@H](O)CN2C(=O)[C@@H](c2cc(OCCN3CC(c4sc5nnc(-c6ccccc6O)cc5c4C)C3)no2)C(C)C)cc1` [Compound 22], in assay [1], the “BRM HiBit Degradation Maximum (%)” value is listed as “A (“A” indicates maximum degradation ≥ 75%)” and the DC50 is not below 0.01 µM. Moreover, in assay [2], the Dmax was not below 50% and the DC50 is not below 0.01 µM.

For `Cc1ncsc1-c1ccc([C@H](C)NC(=O)[C@@H]2C[C@@H](O)CN2C(=O)[C@@H](c2cc(OCCN3CCC(c4sc5nnc(-c6ccccc6O)cc5c4Cl)CC3)no2)C(C)C)cc1` [Compound 90, (2S,4R)-1-((R)-2-(3-(2-(4-(5-chloro-3-(2-hydroxyphenyl)thieno[2,3-c]pyridazin-6-yl)piperidin-1-yl)ethoxy)isoxazol-5-yl)-3-methylbutanoyl)-4-hydroxy-N-((S)-1-(4-(4-methylthiazol-5-yl)phenyl)ethyl)pyrrolidine-2-carboxamide], in assay [1], the “BRM HiBit Degradation Maximum (%)” value is “A (“A” indicates maximum degradation ≥ 75%)” and the DC50 was not below 0.01 µM. Also, in assay [2], the Dmax is less than 50% and the DC50 is not below 1 µM.

`Cc1ncsc1-c1ccc([C@H](C)NC(=O)[C@@H]2C[C@@H](O)CN2C(=O)[C@@H](c2cc(C3CCN(C(=O)CN4CC(c5cc6cc(-c7ccccc7O)nnc6s5)C4)CC3)no2)C(C)C)cc1` [Compound 13]: in assay [1], the “BRM HiBit Degradation Maximum (%)” value is reported as “B (“B” indicates maximum degradation ≥ 50%)” and the DC50 is not below 0.1 µM. Also, in assay [2], the Dmax is less than 50% and the DC50 was not below 1 µM.
